Experiment [1] deals with A431 cells. Kind of experiment: Drug matrix screen: siRNA knockdown and cell viability. It counts as cell-based. Particulars: for shift in drug sensitivity (cell viability) upon siRNA knockdown of γ-tubulin ring complex genes: knockdown of GCNT1, TUBGCP4 and TUBGCP6 relative to CON3 siRNA control, at drug concentrations yielding <60% cell viability; for drug sensitivity / cell killing upon EGFR siRNA knockdown: EGFR siRNA control. The protocol:
An siRNA library was produced based targeting genes identified from methods listed above. The siRNA panel in 96 well plates (Dharmacon) was diluted to 66 nM/15 μl was combined with equal volume of RNAiMax Lipofectamine (Life Technologies) diluted to 0.15×/15 μl, pipette mixed thoroughly then allowed to incubate for 15 minutes at room temperature before addition of 30 μl/well to A431, U87MG_del, and U87MG_EGFR cell lines seeded in 96 well plates at 4500 cells/70 μl/well. Plates were incubated in 37° C. 5% CO2 incubator for 18-24 hours prior to addition of 10 μl drug (MMAE: 1.5 nM final conc., depatuxizumab mafodotin: 18 nM final conc.) or vehicle (phosphate-buffered saline, PBS). Cell viability was assessed post 48 hour drug treatment via Cell Titer Glo (Promega) for A431 cell line or SRB cell stain assay (Sulforhodamine B assay and Chemosensitivity, Voigt et al.) for U87MG_del2.7 and U87MG_EGFR cell lines following recommended protocols with the following exception: media was aspirated off Cell Titer Glo (CTG) plates and 100 μl 1:5 diluted CTG in PBS added per well, covered with foil, rotated to mix 15 minutes prior to reading on Victor chemilluminescent reader. The assay was performed using triplicate plates per drug/vehicle as well as last row of plate contained control siRNA CON3 incubated with vehicle to control for any plate effect. Each plate also contained a row of positive and negative siRNA controls treated with drug for normalization of effects of siRNA KD within and across plates. Effect of siRNA KD assessed via combination of triplicate reactions per siRNA/drug normalized to CON3 siRNA/PBS control and then normalized to CON3 siRNA/drug to determine shift to drug with siRNA KD.
A protocol similar to high-throughput screen was used, except siRNA was loaded in a 3×6 well matrix in a 96 well plate with the following siRNAs (CON3, GCNT1, TUBGCP4, TUBGCP6) per quarter plate. EGFR siRNA was loaded in exterior rows as a control. Drug was diluted to 5 serial-5 dilutions (MMAE, Vincristine, Paclitaxel) or 5 serial 3-dilutions (depatuxizumab mafodotin) along with no drug control and added to triplicate wells (starting concentrations MMAE: 100 nM; Vincristine: 2000 nM; Paclitaxel: 2000 nM; depatuxizumab mafodotin: 99 nM).

Experiment [2] deals with glioblastoma with EGFR amplification. In words: Phase 1 study M12-356 (NCT01800695), tumor response. It counts as in vivo, human. Particulars: patients with EGFR-amplified rGBM; FIG. 1. As to the method: In a Phase 1 study (M12-356, NCT01800695) of depatuxizumab mafodotin in patients with newly diagnosed glioblastoma (nGBM) and recurrent glioblastoma (rGBM) with EGFR amplification, responses in patients with rGBM correlated with EGFR amplification in pre-treatment, archival tumor tissue. Gene amplification was determined by fluorescence in situ hybridization (FISH). Two probes were used: locus-specific EGFR probe and chromosome enumeration probe (CEP) 7. FIG. 1 illustrates change in tumor size in patients with EGFR-amplified rGBM.
Tumor samples for study were from biopsies taken prior to entry onto depatuxizumab mafodotin trial M12-356 (NCT01800695). M12-356 is an open-label, phase 1, 3-arm study: Arm A (depatuxizumab mafodotin+radiation/temozolomide (TMZ) in newly diagnosed GBM; Arm B (depatuxizumab mafodotin+TMZ in newly diagnosed GBM as adjuvant therapy, or in recurrent GBM); and Arm C (depatuxizumab mafodotin monotherapy in recurrent GBM). Arms B and C had and expansion cohort in subjects with centrally confirmed EGFR amplified recurrent GBM.

The results in this text go back to US20190231893A1, “METHODS OF TREATING CANCER” (priority 2017, published 2019).

“Also recorded” adds a separate entry of the source. Square brackets hold non-standard residues; d marks the D form. Peptide text beside a SMILES is read from it. * marks the point of attachment. Dolaproine = CO[C@@H]([C@@H]1CCCN1)[C@@H](C)C(=O)O; Dil = CC[C@H](C)[C@H](NC)[C@@H](CC(=O)O)OC; X1 = C[C@@H](N*)[C@@H](O)c1ccccc1; NMeV = CN[C@H](C(=O)O)C(C)C

In the case of `CC[C@H](C)[C@@H]([C@@H](CC(=O)N1CCC[C@H]1[C@H](OC)[C@@H](C)C(=O)N[C@H](C)[C@@H](O)c1ccccc1)OC)N(C)C(=O)[C@@H](NC(=O)[C@@H](NC)C(C)C)C(C)C` [MMAE, monomethyl auristatin E] (H-[NMeV]V[Dil][Dolaproine]-X1), the “shift in drug sensitivity (cell viability) upon siRNA knockdown of γ-tubulin ring complex genes” value (“shift in drug sensitivity” below) in experiment [1] (FIG. 3) was “impacted sensitivity; also recorded: more sensitive; also recorded: increased sensitivity”.

For the compound `CC(=O)O[C@H]1C(=O)[C@@]2(C)[C@H]([C@H](OC(=O)c3ccccc3)[C@]3(O)C[C@H](OC(=O)[C@H](O)[C@@H](NC(=O)c4ccccc4)c4ccccc4)C(C)=C1C3(C)C)[C@]1(OC(C)=O)CO[C@@H]1C[C@@H]2O` [Paclitaxel], the “shift in drug sensitivity” value in experiment [1] (FIG. 3) was “no additional shift in sensitivity”.

Take depatuxizumab mafodotin: the “clinical response (change in tumor size)” value in experiment [2] is “not all patients with EGFR amplification responded”. Further, the “drug sensitivity / cell killing upon EGFR siRNA knockdown” value in experiment [1] (FIG. 3) is “loss of drug sensitivity”; in experiment [1] (FIG. 3, listed as depatux-m), “abrogated drug internalization and cell killing”. Besides, the “shift in drug sensitivity” value is “increased sensitivity” in experiment [1] (FIG. 3) and “impacted sensitivity; also recorded: more sensitive; also recorded: sensitization” in experiment [1] (FIG. 3, listed as depatux-m).

Take `CC[C@]1(O)C[C@H]2CN(CCc3c([nH]c4ccccc34)[C@@](C(=O)OC)(c3cc4c(cc3OC)N(C=O)[C@H]3[C@@](O)(C(=O)OC)[C@H](OC(C)=O)[C@]5(CC)C=CCN6CC[C@]43[C@@H]65)C2)C1` [Vincristine]: the “shift in drug sensitivity” value in experiment [1] (FIG. 3) is recorded as “increased sensitivity”; in experiment [1] (FIG. 3, listed as vincristine), “impacted sensitivity; also recorded: more sensitive”.
